In assay [1] the test system is [^3 H]5-HT uptake. The assay can be described thus: Synaptosomal [^3 H]5-HT uptake inhibition. The class given is biochemical, rat. As to conditions: for IC50: Table 2, nM ± SD, whole rat brain minus cerebellum synaptosomes. Here is the method:
Synaptosomal uptake assays were carried out as described (Rothman et al. (1993), supra). Briefly, synaptosomes were prepared by homogenization of rat striatum (for [^3 H]DA reuptake) or whole rat brain minus cerebellum (for [^3 H]5-HT reuptake) in ice-cold 10% sucrose, using a Potter-Elvehjem homogenizer. After a 1000×g centrifugation for 10 min at 4° C., the supernatants were retained on ice. The uptake assays were initiated by the addition of 100 μl of synaptosomes to 12×75 mm polystyrene test tubes, which were prefilled with 750 μl of [^3 H]ligand (2 nM [^3 H]5-HT or 5 nM [^3 H]DA) in a Krebs-phosphate buffer (pH 7.4), which contained ascorbic acid (1 mg/ml) and pargyline (50 μM) (buffer), 100 μl of test drugs made up in buffer containing 1 mg/ml bovine serum albumin, and 50 μl of buffer. The [^3 H]5-HT reuptake experiments were conducted in the presence of 100 nM nomifensine and […] GBR12935 in order to block any possible reuptake into NE and DA nerve terminals. […] The nonspecific uptake of each [^3 H]ligand was measured by incubations in the presence of 1 μM GBR12909 ([^3 H]DA) and 10 μM fluoxetine ([^3 H]5-HT). The incubations were terminated after a 15 min ([^3 H]DA) or 30 min ([^3 H]5-HT) incubation at 25° C. by adding 4 ml of wash buffer (10 mM TRIS-HCl, pH 7.4 containing 0.9% NaCl at 25° C.), followed by rapid filtration over Whatman GF/B filters and one additional wash cycle. […] The Krebs-phosphate buffer contained 154.5 mM NaCl, 2.9 mM KCl, 1.1 mM CaCl2, 0.83 mM MgCl2 and 5 mM glucose. The tritium retained on the filters was counted, in a Taurus beta counter, after an overnight extraction into ICN Cytoscint cocktail.
(§1) Inhibition curves were fit to the two parameter logistic equation for the best-fit estimates of the IC50 using nonlinear least squares curve fitting methods as previously described (Rothman et al. (1993), supra); Jones, S. M. and Rogawski, M. A. Mol. Neuropharmacol. 2: 303-310 (1992)).
Synaptosomal uptake and ligand binding assays were conducted as described
above. Preliminary experiments were conducted to determine the doserange
Each [^3 H] ligand was displaced
by 10 concentrations of test drug. The data of two experiments were
pooled, and fit to the two parameter logistic equation for the bestfit
estimates of the IC50 reported above.

Assay [2] relates to PCP site 2. The class given is binding, guinea pig. Here is the method:
Large batches of frozen membranes were prepared with minor modifications of published procedures (Rothman, et al. (1989), supra). Twenty to thirty frozen guinea pig brains with cerebellum were thawed for 15 minutes and homogenized with a Polytron in ice-cold 5 mM Tris-HCl, pH 8.0 (10 ml/brain). The homogenate was centrifuged at 37,000×g for 10 minutes, and the pellet was washed by resuspension in the same volume of buffer followed by recentrifugation. The pellets were resuspended in an equal volume of 5 mM Tris-HCl, pH 8.0, and the concentration was adjusted to 50 mM by the addition of 1M Tris-HCl, pH 8.0. The homogenate was centrifuged for 10 min at 37,000×g. The pellets were then washed three times by resuspension and centrifugation using 50 mM Tris-HCl, pH 8.0. The final pellets were resuspended in the Tris-HCl buffer (0.5 ml/brain), pooled and 1 ml aliquots were distributed to microfuge tubes, which were stored at -70° for assay.
The [^3 H]TCP binding assay for PCP site 2 was conducted with minor modifications of published protocols (Rothman, et al. (1989), supra). Briefly, 12×75 mm polystyrene test tubes were prefilled with 100 μl of [^3 H]TCP (2 nM final concentration) in a protease inhibitor cocktail (PIC) containing 5000 nM (+) -MK801, 100 μl of distilled H2 O or drug (in distilled H2 0), 50 μl of buffer (5 mM Tris-HCL, pH 8.0), and 750 μl of membrane (0.5-1.0 mg/ml protein, in 5 mM Tris-HCl, pH 8.0). […] The protease inhibitor cocktail was composed of 25 μg/ml leupeptin, 25 μg/ml chymostatin, 0.1 mM EDTA, and 0.1 mM ethylene glycol-bis-(beta-aminoethyl-ether)-N,N,N',N'-tetraacetic acid (EGTA). The incubation time was 18-24 hours at 4° C. (steady state) in a final volume of 1 ml. Triplicate samples were filtered with an MR24 Brandel Cell Harvester and washed with two 5 ml aliquots of ice cold buffer. Whatman GF/B filters were presoaked in buffer containing 2% polyethylenimine. The tritium retained on the filters was measured using a Taurus scintillation counter at 44% efficiency after an overnight extraction into ICN Cytoscint cocktail. Non specific binding was determined using 10 μM of TCP. Protein was determine using the method of Lowry, et al., supra.
as §1
^a The binding assays for PCP (site 2) and PCP (site 1) were conducte
as previously reported (Rothman, R. B., et al., In: Multiple Sigma and PC
Receptor Ligands: Mechanisms for Neuromodulation and Protection 307-330
(Domino, E. F. and Kamenka, J. M., eds., 1992) using [^3 H]TCP in the
presence of (+)MK801 for site 2 and [^3 HMK801 for site 1 except that
the [^3 H]TCP assays were terminated after 18-24 hours of incubation

The mark [3] stands for this setting: Table 1, [^3 H]TCP in presence of (+)MK801, 18-24 hours at 4° C.

The structures appear in SMILES notation. Entries after “also recorded” stand apart in the source; their conditions may differ. Like-named read-outs stand apart in the source and are kept apart here.

As for `CN1[C@H](Cc2ccccc2)C[C@H]2Cc3ccccc3[C@H]21` (relative stereo) [RTI-4793-14, (2RS, 3aSR, 8aRS)-1,2,3a,8,8a-Hexahydro-2-benzyl-1-methyl-indeno[1,2-b]pyrrole], the “[^3 H]5-HT uptake inhibition in words” value in assay [1] is “moderate potency”. Also, the IC50 in assay [1] was 1020 ± 72 nM; in assay [2] (setting [3]), 37.9 nM; in assay [2] (Table 2, nM ± SD), 37.9 ± 5.7 nM; in assay [2] (Table 3, guinea pig membranes) it was 37.9 ± 5.7 nM. The “affinity/selectivity for PCP site 2 in words” value in assay [2] is “high affinity and selectivity; also recorded: highest affinity for PCP site 2 of any of the drugs tested”; in assay [2] (listed as 3b), “potent and selective ligand for site 2”.

`CNC1CC(c2ccc(Cl)c(Cl)c2)c2ccccc21` (stereo not shown) [Indatraline]: the “[^3 H]5-HT uptake inhibition in words” value in assay [1] is reported as “potently inhibited; also recorded: potent inhibitor”. The IC50 in assay [1] was 4.49 ± 0.21 nM; in assay [2], 2500 nM; in assay [2] (Table 2, nM ± SD), 2530 ± 485 nM.

Consider `C[C@]12N[C@H](Cc3ccccc31)c1ccccc12` [(+)-MK801], for which, in assay [1], the “[^3 H]5-HT uptake inhibition in words” value is “negligible affinity”. Also, the IC50 is greater than 4700 nM in assay [1]; 15900 nM in assay [2] (setting [3]); greater than 10000 nM in assay [2] (Table 2, nM ± SD).

Take `c1ccc(C2(N3CCCCC3)CCCCC2)cc1` [PCP, phencyclidine]: the IC50 in assay [1] came out at 1420 nM; in assay [2] (setting [3]) it was 92.4 ± 7 nM; in assay [2] (Table 2, nM ± SD) it was 92.4 ± 7 nM. Also, the “affinity/selectivity for PCP site 2 in words” value in assay [2] is “approximately the same potency at both sites; also recorded: moderate and about equal affinity for PCP site 1 and PCP site 2”.

What is called IC50 is the concentration needed to halve the response being measured.

These data come from patent US5747503A, “Selective inhibitors of biogenic amine transporters” (priority 1996, dated 1998).
